Test systems include SF-539 CNS; K-562 leukemia; PC-3 prostate; NCI/ADR-RES ovarian; SR leukemia; HOP-62 NSCLC; HCT-15 colon; RXF 393 renal; MDA-MB-231 breast; M14 melanoma.
Holding throughout (experiment): NCI anticancer screen, dose series, 48 h

Several values for one entry are separate records, joined by “and”; a condition that tells them apart may be missing. Identical values can stand only once.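 1) Cells in 96-well plates. 2) Compound, 48 h, 5 concentrations. 3) Linear interpolation between surrounding doses. 4) Unreached endpoint = highest concentration. At the GI50, growth is halved. TGI marks complete inhibition of growth.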

On to `Oc1ccc(Oc2cnc3cc(Cl)ccc3n2)cc1`, for which the GI50 with SF-539 CNS was 49.4 µM; in the assay on K-562 leukemia it was 37.7 µM; in the assay with PC-3 prostate, 23.6 µM; with NCI/ADR-RES ovarian it was 35.7 µM; with SR leukemia it was 22 µM; in the assay on HOP-62 NSCLC, above 100 µM. Besides, the GI50 with HCT-15 colon is 33.7 µM; in the assay with RXF 393 renal, 46.6 µM; in the assay on MDA-MB-231 breast it was 24.5 µM; in the assay with M14 melanoma, 46.5 µM. Also, the TGI in the assay with SF-539 CNS is above 100 µM; in the assay on K-562 leukemia, above 100 µM; in the assay on PC-3 prostate it was above 100 µM; in the assay on NCI/ADR-RES ovarian it was above 100 µM; in the assay with SR leukemia it was 68.4 µM; with HOP-62 NSCLC, above 100 µM. Also, the TGI with HCT-15 colon, in the assay with RXF 393 renal, with MDA-MB-231 breast and in the assay on M14 melanoma was above 100 µM each time.

On to `O=C(Cn1c(C(=O)c2ccc(Cl)cc2)nc(-c2ccccc2)c1-c1ccccc1)c1ccc(Cl)cc1`, for which the GI50 in the assay on SF-539 CNS, in the assay on K-562 leukemia, in the assay on PC-3 prostate, with NCI/ADR-RES ovarian, with SR leukemia and in the assay with HOP-62 NSCLC was above 100 µM each time. For the same compound, the GI50 in the assay with HCT-15 colon, in the assay on RXF 393 renal, in the assay on MDA-MB-231 breast and in the assay on M14 melanoma was above 100 µM each time. The TGI in the assay on SF-539 CNS, in the assay with K-562 leukemia, in the assay with PC-3 prostate, with NCI/ADR-RES ovarian, in the assay on SR leukemia and in the assay on HOP-62 NSCLC was above 100 µM in each case. Moreover, the TGI with HCT-15 colon, in the assay on RXF 393 renal, in the assay on MDA-MB-231 breast and in the assay with M14 melanoma was above 100 µM each time.

For `CN(C)CC1CCCCCC(Br)C1=O` (stereo not given), the TGI in the assay on SF-539 CNS is 31.8 µM; with K-562 leukemia, above 100 µM; in the assay on PC-3 prostate, 43.6 µM; in the assay on NCI/ADR-RES ovarian it was 37.8 µM; in the assay on SR leukemia, 7.14 µM; in the assay on HOP-62 NSCLC, 47.3 µM. In addition, the TGI in the assay on HCT-15 colon worked out at 25.4 µM; in the assay on RXF 393 renal, 32.6 µM; with MDA-MB-231 breast, 30.9 µM; with M14 melanoma it was 37.5 µM.

For `OCCn1cc(-c2cnc3nnn(Cc4ccc5ncccc5c4)c3n2)cn1`, the GI50 with SF-539 CNS, with K-562 leukemia, in the assay on PC-3 prostate, in the assay on NCI/ADR-RES ovarian, with SR leukemia and with HOP-62 NSCLC was above 100 µM throughout. Moreover, the GI50 in the assay with HCT-15 colon, in the assay on RXF 393 renal, in the assay with MDA-MB-231 breast and in the assay on M14 melanoma was above 100 µM throughout. Also, the TGI in the assay on SF-539 CNS, with K-562 leukemia, in the assay with PC-3 prostate, in the assay on NCI/ADR-RES ovarian, in the assay on SR leukemia and in the assay with HOP-62 NSCLC was above 100 µM each time. The TGI with HCT-15 colon, in the assay on RXF 393 renal, with MDA-MB-231 breast and in the assay with M14 melanoma was above 100 µM each time.

Consider `O=c1c2c(=NCCN3CCCC3)cc3c(=O)n(CCCN4CCOCC4)c(=O)c4ccc(c(O)n1CCCN1CCOCC1)c2c4-3`, for which the GI50 in the assay with SF-539 CNS is 0.345 µM; with K-562 leukemia, below 0.0213 µM; in the assay with PC-3 prostate, 0.0919 µM; in the assay with NCI/ADR-RES ovarian, 0.166 µM; in the assay on SR leukemia, below 0.0201 µM; in the assay with HOP-62 NSCLC, 0.0577 µM. Moreover, the GI50 in the assay with HCT-15 colon was below 0.0201 µM; in the assay on RXF 393 renal, 0.104 µM; with MDA-MB-231 breast, 0.197 µM; in the assay on M14 melanoma, 0.323 µM. Also, the TGI is 1.43 µM with SF-539 CNS; above 70.4 µM in the assay with K-562 leukemia; 0.638 µM with PC-3 prostate; 12 µM with NCI/ADR-RES ovarian; 5.37 µM in the assay on SR leukemia; 0.832 µM with HOP-62 NSCLC. The TGI in the assay on HCT-15 colon was determined as 0.946 µM; with RXF 393 renal, 0.266 µM; in the assay with MDA-MB-231 breast, 0.919 µM; in the assay with M14 melanoma, 1.19 µM.

For `O=C1/C(=C/c2ccc(Cl)cc2)CCC1CN1CCOCC1` (stereo not given), the TGI in the assay on SF-539 CNS is 34.6 µM; in the assay on K-562 leukemia, 8.06 µM; in the assay with PC-3 prostate, 18.5 µM; in the assay on NCI/ADR-RES ovarian it was 22.5 µM; with SR leukemia, 5.29 µM; in the assay on HOP-62 NSCLC, 35.1 µM. The TGI amounted to 11.6 µM with HCT-15 colon, 11.2 µM in the assay with RXF 393 renal, 11.2 µM with MDA-MB-231 breast and 19.4 µM with M14 melanoma.

Take `CCCCCCCCCCCC1=NC(C)(C)CN1CC(C)O` (stereo not given): the GI50 with SF-539 CNS is 1.67 µM; in the assay with K-562 leukemia, 1.62 µM; in the assay on PC-3 prostate it was 4.48 µM; with NCI/ADR-RES ovarian, 11.8 µM; in the assay with SR leukemia, 1.47 µM; with HOP-62 NSCLC, 4.75 µM. Moreover, the GI50 in the assay with HCT-15 colon was 1.95 µM; in the assay with RXF 393 renal it was 2.55 µM; in the assay on MDA-MB-231 breast, 3.82 µM; in the assay on M14 melanoma it was 1.62 µM. For the same compound, the TGI in the assay on SF-539 CNS was 3.14 µM; with K-562 leukemia it was 3.33 µM; with PC-3 prostate, 18.6 µM; with NCI/ADR-RES ovarian, 24.1 µM; in the assay with SR leukemia, 3.75 µM; in the assay on HOP-62 NSCLC, 17.4 µM. Further, the TGI in the assay on HCT-15 colon was 4.75 µM; in the assay on RXF 393 renal, 6.96 µM; in the assay on MDA-MB-231 breast it was 13.7 µM; in the assay on M14 melanoma, 3.1 µM.

`COc1ccc(C2=N[C@@H](c3ccc(Cl)cc3)[C@@H](c3ccc(Cl)cc3)N2C(=O)N2CCNC(=O)C2)c(OC(C)C)c1`: the GI50 was 16.5 µM and 17.2 µM and 17.8 µM in the assay on SF-539 CNS; 16.5 µM and 17.1 µM in the assay on K-562 leukemia; 11.2 µM and 11.1 µM and 12.3 µM in the assay on PC-3 prostate; 16.9 µM and 16.7 µM and 16.2 µM in the assay with NCI/ADR-RES ovarian; 11.7 µM and 2.07 µM and 1.19 µM in the assay on SR leukemia; 16.5 µM and 15 µM and 16.1 µM in the assay on HOP-62 NSCLC. In addition, the GI50 in the assay on HCT-15 colon was 14.3 µM and 14.5 µM and 14.9 µM; with RXF 393 renal it was 12.3 µM and 12.7 µM and 13.9 µM; in the assay on MDA-MB-231 breast, 17.2 µM and 13 µM and 14.8 µM; with M14 melanoma, 14.1 µM and 14.9 µM and 16.3 µM. In addition, the TGI in the assay with SF-539 CNS was 32 µM and 32.9 µM and 35.1 µM; in the assay with K-562 leukemia, 61.6 µM and 53.1 µM and 74.1 µM; in the assay with PC-3 prostate, 26.7 µM and 24.9 µM and 28 µM; in the assay with NCI/ADR-RES ovarian, 35 µM and 37.8 µM and 37.1 µM; in the assay with SR leukemia it was 36.5 µM and 23.9 µM and 17 µM; in the assay on HOP-62 NSCLC it was 31.1 µM and 30.5 µM and 33.3 µM. Besides, the TGI in the assay with HCT-15 colon is 32.3 µM and 28.7 µM and 30.2 µM; in the assay with RXF 393 renal, 25.4 µM and 25.9 µM and 27.8 µM; in the assay on MDA-MB-231 breast, 38.4 µM and 27.1 µM and 29.6 µM; in the assay on M14 melanoma, 28.4 µM and 32 µM and 33.2 µM.

The values above are taken from PubChem BioAssay (NCI).
